Each structure is given as a SMILES string. Activity calls are given as the source filed them. No cut-off for these calls is given here.

By IC50 is commonly meant the concentration at which inhibition is half-maximal. Read a low IC50 as higher potency. As a reminder, the DC50 is the concentration giving 50% degradation. The EC50 is the concentration needed to bring the measured effect to its halfway point. Read a low EC50 as a more potent agent.

One series deals with K562. Kind of series: Antiproliferative activity against human K562 cells incubated for 3 days by CCK8 assay. The conditions noted are these: K562, 72 h. Type of series: functional, cell-based. (In general: Formazan colour is commonly taken as a measure of viable cells.)
Series [1] has as its target Protein cereblon/Tyrosine-protein kinase ABL1/Breakpoint cluster region protein (Homo sapiens, UniProt P00519+P11274+Q96SW2). The experiment in a line: Protac activity at Cereblon/BCR/ABL in human K562 cells assessed as induction of BCR-ABL degradation incubated for 32 to 48 hrs by Western blot analysis. It counts as cell-based. On the technique in general: A western blot detects proteins with antibodies after separation by electrophoresis.

Series [2] concerns the target Protein cereblon/Tyrosine-protein kinase ABL1/Breakpoint cluster region protein (Homo sapiens, UniProt P00519+P11274+Q96SW2, T315I). It counts as cell-based, BaF3.
Another series concerns BaF3. Kind of series: Antiproliferative activity against wild type mouse BA/F3 cells incubated for 3 days by CCK8 assay. It counts as cell-based. The conditions noted are these: BaF3, 72 h.
Series [3] deals with Protein cereblon/Tyrosine-protein kinase ABL1/Breakpoint cluster region protein (Homo sapiens), P00519+P11274+Q96SW2 [T315I]. Kind of series: Protac activity at Cereblon/BCR/ABL T315I mutant (unknown origin) expressed in mouse BaF3 cells assessed as reduction in BCR-ABL T315I mutant protein levels at 3 to 30000 nM incubated for 48 hrs by Western blot analysis. Type of series: cell-based.

Series [4] has the same test system. Kind of series: Protac activity at Cereblon/BCR/ABL T315I mutant (unknown origin) expressed in mouse BaF3 cells assessed as reduction in BCR-ABL T315I mutant protein levels at 1 uM incubated for 48 hrs by Western blot analysis. Type of series: cell-based.
A further series deals with H9c2. The experiment in a line: Antiproliferative activity against rat H9C2 cells incubated for 3 days by CCK8 assay. Type of series: cell-based. The conditions noted are these: H9c2, 72 h.
Series [5] concerns HUVEC. The experiment in a line: Antiproliferative activity against human HUVEC incubated for 3 days by CCK8 assay. It counts as cell-based. The conditions noted are these: 72 h.
The subject of series [6] is HUVEC. Kind of series: Toxicity in HUVEC assessed as inhibition of tube formation at 200 nM incubated for 20 hrs by optical microscopy based matrigel-based assay. It counts as cell-based. The conditions noted are these: human, 0.2 µM.
For series [7], the system named is Protein cereblon/Tyrosine-protein kinase ABL1/Breakpoint cluster region protein (Homo sapiens), P00519+P11274+Q96SW2 [T315I]. Kind of series: Protac activity at Cereblon/BCR/ABL T315I mutant (unknown origin) expressed in mouse BaF3 cells assessed as reduction in BCR-ABL T315I mutant protein levels at 3 to 30000 nM incubated for 32 hrs by Western blot analysis. It counts as cell-based.

In the series on K562, `Cc1ccc(NC(=O)c2ccc(CN3CCN(C)CC3)cc2)cc1Nc1nccc(-c2cccnc2)n1` [IMATINIB] displayed an IC50 of 76.2 nM. Take `Cc1ccc(C(=O)Nc2ccc(CN3CCN(C(=O)CCCc4cn(CCNc5cccc6c5C(=O)N(C5CCC(=O)NC5=O)C6=O)nn4)CC3)c(C(F)(F)F)c2)cc1C#Cc1cnc2cccnn12` (stereo not given): the DC50 in series [1] stood at 625 nM. In series [2], `C#CCCCC(=O)N1CCN(c2cc(Nc3ncc(C)s3)nc(C)n2)CC1` had a half-maximal effective concentration (EC50) greater than 10000 nM. Molecule `C#CCCCC(=O)N1CCN(c2cc(Nc3ncc(/C=C/c4cccc(O)c4)s3)nc(C)n2)CC1` returned an EC50 in series [2] of 1300 nM. With `Cc1ccc(NC(=O)c2ccc(CN3CCN(C(=O)CCCc4cn(CCOCCOCCOCCNc5cccc6c5C(=O)N(C5CCC(=O)NC5=O)C6=O)nn4)CC3)cc2)cc1Nc1nccc(-c2cccnc2)n1` (stereo not given), in series [1], the DC50 is greater than 10000 nM. As to `C#CCCCC(=O)N1CCN(c2cc(Nc3ncc(/C=C/c4cc(F)cc(F)c4)s3)nc(C)n2)CC1`, a half-maximal effect in series [2] (EC50) was put at 1500 nM. For the molecule `O=C1CCC(N2C(=O)c3cccc(NCCn4cc(CCCC(=O)N[C@@H]5CCN(c6ncc(C(=O)Nc7ccc(OC(F)(F)Cl)cc7)cc6-c6cc[nH]n6)C5)nn4)c3C2=O)C(=O)N1` (stereo not given in full), the DC50 in [1] is greater than 625 nM.

As for `Cc1ccc(C(=O)Nc2ccc(CN3CCN(C(=O)CCCc4cn(CCOCCOCCOCCOCCNc5cccc6c5C(=O)N(C5CCC(=O)NC5=O)C6=O)nn4)CC3)c(C(F)(F)F)c2)cc1C#Cc1cnc2cccnn12` (stereo not given), the DC50 in series [1] was found to be 70 nM. Still for that read-out and setting: for `Cc1nc(Nc2ncc(C(=O)Nc3c(C)cccc3Cl)s2)cc(N2CCN(C(=O)CCCc3cn(CCOCCNc4cccc5c4C(=O)N(C4CCC(=O)NC4=O)C5=O)nn3)CC2)n1` (stereo not given) the value was 56 nM.

As to `Cc1cccc(/C=C/c2cnc(Nc3cc(N4CCN(C(=O)CCCc5cn(CCOCCOCCOCCOCCNc6cccc7c6C(=O)N(C6CCC(=O)NC6=O)C7=O)nn5)CC4)nc(C)n3)s2)c1` (stereo not given), the EC50 in the series with BaF3 was greater than 10000 nM; in [2], 6100 nM. Further, the result in series [3] and in series [4] was Active. Take `O=C1CCC(N2C(=O)c3cccc(NCCOCCOCCn4cc(CCCC(=O)N[C@@H]5CCN(c6ncc(C(=O)Nc7ccc(OC(F)(F)Cl)cc7)cc6-c6cc[nH]n6)C5)nn4)c3C2=O)C(=O)N1` (stereo not given in full): in series [1], the half-maximal degradation concentration (DC50) is 300 nM. On to `Cc1ccc(C(=O)Nc2ccc(CN3CCN(C)CC3)c(C(F)(F)F)c2)cc1C#Cc1cnc2cccnn12` [PONATINIB], for which the midpoint of inhibition in the series on K562, the IC50, lay at 0.3 nM. In addition, the EC50 with BaF3 was 438 nM; in the series on H9c2, 379 nM; with HUVEC [5], 515 nM. For the same molecule, the Activity entry with HUVEC [6] is given as “Toxic”. As for `Cc1nc(Nc2ncc(C(=O)Nc3c(C)cccc3Cl)s2)cc(N2CCN(C(=O)CCCc3cn(CCNc4cccc5c4C(=O)N(C4CCC(=O)NC4=O)C5=O)nn3)CC2)n1` (stereo not given), the DC50 in [1] came out at 56 nM.

In series [2], `C#CCCCC(=O)N1CCN(c2cc(Nc3ncc(/C=C/c4ccc(F)cc4)s3)nc(C)n2)CC1` gave an EC50 of 3200 nM. The molecule `C#CCCCC(=O)N1CCN(c2cc(Nc3ncc(/C=C/c4cccc(C)c4)s3)nc(C)n2)CC1` gave an EC50 in series [2] of 450 nM.

As for `Cc1ccc(NC(=O)c2ccc(CN3CCN(C(=O)CCCc4cn(CCOCCNc5cccc6c5C(=O)N(C5CCC(=O)NC5=O)C6=O)nn4)CC3)cc2)cc1Nc1nccc(-c2cccnc2)n1` (stereo not given), the DC50 in series [1] is greater than 10000 nM.

For the molecule `Cc1ccc(NC(=O)c2ccc(CN3CCN(C(=O)CCCc4cn(CCOCCOCCNc5cccc6c5C(=O)N(C5CCC(=O)NC5=O)C6=O)nn4)CC3)cc2)cc1Nc1nccc(-c2cccnc2)n1` (stereo not given), the DC50 in [1] is greater than 10000 nM. On the same count and under the same terms, the value for `Cc1nc(Nc2ncc(C(=O)Nc3c(C)cccc3Cl)s2)cc(N2CCN(C(=O)CCCc3cn(CCOCCOCCOCCNc4cccc5c4C(=O)N(C4CCC(=O)NC4=O)C5=O)nn3)CC2)n1` (stereo not given) was 56 nM; that for `Cc1nc(Nc2ncc(C(=O)Nc3c(C)cccc3Cl)s2)cc(N2CCN(C(=O)CCCc3cn(CCOCCOCCNc4cccc5c4C(=O)N(C4CCC(=O)NC4=O)C5=O)nn3)CC2)n1` (stereo not given) was 20 nM. In turn, `C#CCCCC(=O)N1CCN(c2cc(Nc3ncc(/C=C/c4cccc(OC)c4)s3)nc(C)n2)CC1` registered an EC50 in series [2] greater than 10000 nM.

Consider `C#CCCCC(=O)N1CCN(c2cc(Nc3ncc(/C=C/c4ccc(F)c(F)c4)s3)nc(C)n2)CC1`, for which the response in series [2] was half-maximal at 570 nM (EC50). Regarding `Cc1ccc(C(=O)Nc2ccc(CN3CCN(C(=O)CCCc4cn(CCOCCOCCNc5cccc6c5C(=O)N(C5CCC(=O)NC5=O)C6=O)nn4)CC3)c(C(F)(F)F)c2)cc1C#Cc1cnc2cccnn12` (stereo not given), in [1], the 50% degradation concentration (DC50) was determined as 70 nM. In the case of `O=C1CCC(N2C(=O)c3cccc(NCCOCCOCCOCCOCCn4cc(CCCC(=O)N[C@@H]5CCN(c6ncc(C(=O)Nc7ccc(OC(F)(F)Cl)cc7)cc6-c6cc[nH]n6)C5)nn4)c3C2=O)C(=O)N1` (stereo not given in full), in series [1], the DC50 was 500 nM.

For the molecule `O=C1CCC(N2C(=O)c3cccc(NCCOCCn4cc(CCCC(=O)N[C@@H]5CCN(c6ncc(C(=O)Nc7ccc(OC(F)(F)Cl)cc7)cc6-c6cc[nH]n6)C5)nn4)c3C2=O)C(=O)N1` (stereo not given in full), in [1], the half-maximal degradation concentration (DC50) stood at 400 nM. Still for that read-out and setting: for `Cc1ccc(NC(=O)c2ccc(CN3CCN(C(=O)CCCc4cn(CCOCCOCCOCCOCCNc5cccc6c5C(=O)N(C5CCC(=O)NC5=O)C6=O)nn4)CC3)cc2)cc1Nc1nccc(-c2cccnc2)n1` (stereo not given) the value was greater than 10000 nM. Consider `O=C1CCC(N2C(=O)c3cccc(NCCOCCOCCOCCn4cc(CCCC(=O)N[C@@H]5CCN(c6ncc(C(=O)Nc7ccc(OC(F)(F)Cl)cc7)cc6-c6cc[nH]n6)C5)nn4)c3C2=O)C(=O)N1` (stereo not given in full), for which the DC50 in series [1] came to 200 nM. In the series with K562, the half-maximal inhibitory concentration (IC50) amounted to 121 nM. Besides, the result in [7] was Active. Further, the 50% effective concentration (EC50) in the series with BaF3 was greater than 10000 nM; in [2] it was 1020 nM. In turn, `Cc1nc(Nc2ncc(C(=O)Nc3c(C)cccc3Cl)s2)cc(N2CCN(CCO)CC2)n1` [DASATINIB] gave a half-inhibitory concentration (IC50) in the series on K562 of 0.19 nM. In addition, the EC50 with BaF3 is greater than 10000 nM. With `C#CCCCC(=O)N1CCN(c2cc(Nc3ncc(/C=C/c4cccc(F)c4)s3)nc(C)n2)CC1`, in series [2], the EC50 is 770 nM. Regarding `Cc1nc(Nc2ncc(C(=O)Nc3c(C)cccc3Cl)s2)cc(N2CCN(C(=O)CCCc3cn(CCOCCOCCOCCOCCNc4cccc5c4C(=O)N(C4CCC(=O)NC4=O)C5=O)nn3)CC2)n1` (stereo not given), the 50% degradation concentration (DC50) in series [1] is 10 nM. For the same molecule, in the series on K562, it took 9.2 nM to reach half-maximal inhibition (IC50). Also, the EC50 (in the series on BaF3; in [2]) was greater than 10000 nM throughout. For the same molecule, the result in series [3] was inactive. For `Cc1nc(Nc2ncc(C(=O)Nc3c(C)cccc3Cl)s2)cc(N2CCN(CCCCCCOCCOCCOCCCCCC(=O)Nc3cccc4c3C(=O)N(C3CCC(=O)NC3=O)C4=O)CC2)n1` (stereo not given), the half-maximal inhibitory concentration (IC50) in the series on K562 came out at 8 nM. The 50% effective concentration (EC50) in the series on BaF3 was greater than 10000 nM. Further, in series [3], the outcome was inactive. Turning to `Cc1ccc(C(=O)Nc2ccc(CN3CCN(C(=O)CCCc4cn(CCOCCNc5cccc6c5C(=O)N(C5CCC(=O)NC5=O)C6=O)nn4)CC3)c(C(F)(F)F)c2)cc1C#Cc1cnc2cccnn12` (stereo not given), the DC50 in series [1] was found to be 70 nM. In the case of `Cc1ccc(NC(=O)c2ccc(CN3CCN(C(=O)CCCc4cn(CCNc5cccc6c5C(=O)N(C5CCC(=O)NC5=O)C6=O)nn4)CC3)cc2)cc1Nc1nccc(-c2cccnc2)n1` (stereo not given), the DC50 in series [1] was greater than 10000 nM.

(Values after ChEMBL document CHEMBL4616725, “Global PROTAC Toolbox for Degrading BCR-ABL Overcomes Drug-Resistant Mutants and Adverse Effects” (J Med Chem, 2020).)
